From PMC7996082, “The translocator protein ligands as mitochondrial functional modulators for the potential anti-Alzheimer agents” (Journal of Enzyme Inhibition and Medicinal Chemistry, 2021)

Columns and labels:
[1] = test system: HT22 cells treated with Aβ; experiment: Cellular ROS assay (DCFDA): inhibition of Aβ-induced ROS generation; assay type: cell-based, mouse; details: Mus musculus, HT-22, 5 μM compound
Experimental: Among 56 compounds, 23 compounds were selected and further tested for the luciferase-based ATP assay. […] Thus, we chose these two compounds and further evaluated their biological activity by measuring cell viability and reactive oxygen species (ROS) production. The effects on cell viability of each compound under Aβ-induced cytotoxicity were determined by measuring the metabolic activity of NAD(P)H-dependent cellular oxidoreductases using the 3–(4,5-dimethylthiazol-2-yl)-2,5-diphenyl-tetrazolium bromide (MTT) dye. To measure cellular ROS levels, we used a fluorescence indicator, 2′,7′-dichlorofluorescein diacetate (DCFDA), and calculated the percent inhibition of ROS generation by applying the same method used for MTT assays. Compound 7 inhibited Aβ-induced ROS generation (97% at 5 µM) almost to the level of the untreated control (Table 1). […] On the basis of the in vitro activity, we selected compound 7 as the best hit from the initial screening library.

[2] = test system: transgenic AD model mice (APPswe/PSEN1dE9); experiment: Contextual fear conditioning test in transgenic AD model mice; assay type: in vivo, mouse; details: Tg AD model mice, 30 mg/kg daily, 1 month, PO
Experimental: The acute AD mice model was prepared by administration of Aβ1-42 solution (10% DMSO/90% PBS) to male ICR mice (6 weeks old, 30 − 33 g) via intracerebroventricular (ICV) injection (Aβ1-42 dose: 500 pmol/mouse) as described previously. The wild type mice (B6C3F1) and double APP/PS1 transgenic mice (Tg AD mice model; APPswe/PSEN1dE9) were purchased from Jackson Laboratory (Bar Harbour, ME, USA). The Tg AD model mice were 11 months old at the beginning of the behaviour test, and were housed for 1 month in a room under controlled temperature and fed ad libitum. The behaviour tests were conducted during daytime in air-controlled and soundproof experiment room. The animal experiments were abided by the guidelines of the Institutional Animal Care and Use Committee of Korea Institute of Science and Technology.
To the Tg mice of the AD model (n = 7 per group), each test compound (30 mg/kg) was orally administrated daily for 1 month. […] Freezing response was measured by the fear conditioning system without application of CS or US.
In addition, we assessed recovery effects of compound 7 by performing contextual fear conditioning tests.[40] Healthy mice show higher number of total freezing, which is an index of fear learning and memory of rodents; therefore, the number of total freezing responses under fear-relevant stimuli was measured with the compound-treated Tg AD model mice. […]

[3] = test system: transgenic AD model mice (APPswe/PSEN1dE9); experiment: Y-maze spontaneous alternation test in transgenic AD model mice; assay type: in vivo, mouse; details: Tg APPswe/PSEN1dE9 mice, 30 mg/kg daily, 1 month, PO

## CCOc1ccc(-n2c(SCC(=O)Nc3ccc(OC)c(OC)c3)nc3sc4c(c3c2=O)CCN(C(C)=O)C4)cc1 [Compound 7]
[1]
  inhibition at 5 µM: 97%
[2]
  Contextual fear conditioning: percent recovery of freezing: 62%
[3]
  Recovery of Y-maze spontaneous alternations: 50%
